Reference: PubChem BioAssay (NCI)
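Grown in 96-well plates, cells were treated for 48 hours with each compound at five concentrations. Insufficient inhibition: endpoint recorded as highest concentration tested. GI50 marks 50% less growth. At the TGI there is no net growth.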

Columns and labels:
Assay in all cases: inhibition of tumour cell growth, NCI panel, 48 h
OVCAR-5 ovarian = system: OVCAR-5 ovarian
EKVX NSCLC = system: EKVX NSCLC
K-562 leukemia = system: K-562 leukemia
HCC-2998 colon = system: HCC-2998 colon
SK-MEL-28 melanoma = system: SK-MEL-28 melanoma
RXF 393 renal = system: RXF 393 renal
DU-145 prostate = system: DU-145 prostate
MDA-MB-435 = system: MDA-MB-435
IGROV1 ovarian = system: IGROV1 ovarian
HCT-15 colon = system: HCT-15 colon
MCF7 breast = system: MCF7 breast
SK-OV-3 ovarian = system: SK-OV-3 ovarian
A549 NSCLC = system: A549 NSCLC
MALME-3M melanoma = system: MALME-3M melanoma
HOP-62 NSCLC = system: HOP-62 NSCLC
KM12 colon = system: KM12 colon
UACC-62 melanoma = system: UACC-62 melanoma
CAKI-1 renal = system: CAKI-1 renal
HT29 colon = system: HT29 colon
HCT-116 colon = system: HCT-116 colon
SK-MEL-2 melanoma = system: SK-MEL-2 melanoma
HOP-92 NSCLC = system: HOP-92 NSCLC
U251 CNS = system: U251 CNS
UO-31 renal = system: UO-31 renal
A498 renal = system: A498 renal
SK-MEL-5 melanoma = system: SK-MEL-5 melanoma
LOX IMVI melanoma = system: LOX IMVI melanoma
NCI-H460 lung = system: NCI-H460 lung
786-0 renal = system: 786-0 renal
COLO 205 colon = system: COLO 205 colon
RPMI-8226 leukemia = system: RPMI-8226 leukemia
OVCAR-4 ovarian = system: OVCAR-4 ovarian
SNB-19 CNS = system: SNB-19 CNS
BT-549 breast = system: BT-549 breast
SW-620 colon = system: SW-620 colon
NCI-H226 lung = system: NCI-H226 lung
PC-3 prostate = system: PC-3 prostate
NCI-H522 lung = system: NCI-H522 lung
OVCAR-3 ovarian = system: OVCAR-3 ovarian
TK-10 renal = system: TK-10 renal
T-47D breast = system: T-47D breast
SF-539 CNS = system: SF-539 CNS
UACC-257 melanoma = system: UACC-257 melanoma
MDA-MB-231 breast = system: MDA-MB-231 breast
HL-60(TB) leukemia = system: HL-60(TB) leukemia
SF-295 CNS = system: SF-295 CNS
OVCAR-8 ovarian = system: OVCAR-8 ovarian
CCRF-CEM leukemia = system: CCRF-CEM leukemia
MDA-MB-468 breast = system: MDA-MB-468 breast
NCI-H23 lung = system: NCI-H23 lung
SN12C renal = system: SN12C renal
ACHN renal = system: ACHN renal
SR leukemia = system: SR leukemia
SF-268 CNS = system: SF-268 CNS

COc1cc(/C=C/C(=O)c2cnn(-c3cc(=O)[nH]c4ccc(Br)cc34)c2C)cc(OC)c1OC
GI50 (OVCAR-5 ovarian): 3.09 µM
TGI (OVCAR-5 ovarian): 10.7 µM
GI50 (EKVX NSCLC): 2.96 µM
TGI (EKVX NSCLC): 13.4 µM
GI50 (K-562 leukemia): 2.86 µM
TGI (K-562 leukemia): > 100 µM
GI50 (HCC-2998 colon): 3.3 µM
TGI (HCC-2998 colon): 11 µM
GI50 (SK-MEL-28 melanoma): 2.84 µM
TGI (SK-MEL-28 melanoma): 8.75 µM
GI50 (RXF 393 renal): 1.87 µM
TGI (RXF 393 renal): 3.95 µM
GI50 (DU-145 prostate): 3.61 µM
TGI (DU-145 prostate): 30.5 µM
GI50 (MDA-MB-435): 2.72 µM
TGI (MDA-MB-435): 8.65 µM
GI50 (IGROV1 ovarian): 2.23 µM
TGI (IGROV1 ovarian): 6.33 µM
GI50 (HCT-15 colon): 1.71 µM
TGI (HCT-15 colon): 3.92 µM
GI50 (MCF7 breast): 2.16 µM
TGI (MCF7 breast): 9.06 µM
GI50 (SK-OV-3 ovarian): 4.34 µM
TGI (SK-OV-3 ovarian): > 100 µM
GI50 (A549 NSCLC): 3.52 µM
TGI (A549 NSCLC): > 100 µM
GI50 (MALME-3M melanoma): 4.66 µM
TGI (MALME-3M melanoma): 22.3 µM
GI50 (HOP-62 NSCLC): 3.55 µM
TGI (HOP-62 NSCLC): 17.2 µM
GI50 (KM12 colon): 3.48 µM
TGI (KM12 colon): 14.6 µM
GI50 (UACC-62 melanoma): 1.79 µM
TGI (UACC-62 melanoma): 4 µM
GI50 (CAKI-1 renal): 4.11 µM
TGI (CAKI-1 renal): 31.3 µM
GI50 (HT29 colon): 2.2 µM
TGI (HT29 colon): 5.07 µM
GI50 (HCT-116 colon): 3.27 µM
TGI (HCT-116 colon): 11.5 µM
GI50 (SK-MEL-2 melanoma): 3.52 µM
TGI (SK-MEL-2 melanoma): 12.2 µM
GI50 (HOP-92 NSCLC): 8.2 µM
TGI (HOP-92 NSCLC): > 100 µM
GI50 (U251 CNS): 2.54 µM
TGI (U251 CNS): 7.37 µM
GI50 (UO-31 renal): 2.83 µM
TGI (UO-31 renal): 12.5 µM
GI50 (A498 renal): 28.5 µM
TGI (A498 renal): 51.6 µM
GI50 (SK-MEL-5 melanoma): 3.05 µM
TGI (SK-MEL-5 melanoma): 10.7 µM
GI50 (LOX IMVI melanoma): 1.49 µM
TGI (LOX IMVI melanoma): 3.35 µM
GI50 (NCI-H460 lung): 2.39 µM
TGI (NCI-H460 lung): 5.37 µM
GI50 (786-0 renal): 3.63 µM
TGI (786-0 renal): 14.3 µM
GI50 (COLO 205 colon): 3.35 µM
TGI (COLO 205 colon): 10.9 µM
GI50 (RPMI-8226 leukemia): 2.84 µM
TGI (RPMI-8226 leukemia): > 100 µM
GI50 (OVCAR-4 ovarian): 5.2 µM
TGI (OVCAR-4 ovarian): > 100 µM
GI50 (SNB-19 CNS): 3.25 µM
TGI (SNB-19 CNS): 12.6 µM
GI50 (BT-549 breast): 2.29 µM
TGI (BT-549 breast): 6.28 µM
GI50 (SW-620 colon): 3.09 µM
TGI (SW-620 colon): 8.61 µM
GI50 (NCI-H226 lung): 2.49 µM
TGI (NCI-H226 lung): 7.38 µM
GI50 (PC-3 prostate): 5.19 µM
TGI (PC-3 prostate): > 100 µM
GI50 (NCI-H522 lung): 2.26 µM
TGI (NCI-H522 lung): 5.98 µM
GI50 (OVCAR-3 ovarian): 3.45 µM
TGI (OVCAR-3 ovarian): 12.1 µM
GI50 (TK-10 renal): 3.8 µM
TGI (TK-10 renal): 24.1 µM
GI50 (T-47D breast): 3.06 µM
TGI (T-47D breast): 18.8 µM
GI50 (SF-539 CNS): 2.03 µM
TGI (SF-539 CNS): 4.54 µM
GI50 (UACC-257 melanoma): 7.78 µM
TGI (UACC-257 melanoma): 48.5 µM
GI50 (MDA-MB-231 breast): 3.11 µM
TGI (MDA-MB-231 breast): 13.7 µM
GI50 (HL-60(TB) leukemia): 3 µM
TGI (HL-60(TB) leukemia): > 100 µM
GI50 (SF-295 CNS): 2.4 µM
TGI (SF-295 CNS): 7.75 µM
GI50 (OVCAR-8 ovarian): 3.48 µM
TGI (OVCAR-8 ovarian): > 100 µM
GI50 (CCRF-CEM leukemia): 2.88 µM
TGI (CCRF-CEM leukemia): > 100 µM
GI50 (MDA-MB-468 breast): 1.93 µM
TGI (MDA-MB-468 breast): 5.43 µM
GI50 (NCI-H23 lung): 1.92 µM
TGI (NCI-H23 lung): 4.33 µM
GI50 (SN12C renal): 2.94 µM
TGI (SN12C renal): 11.6 µM
GI50 (ACHN renal): 1.84 µM
TGI (ACHN renal): 4.31 µM
GI50 (SR leukemia): 2.44 µM
TGI (SR leukemia): > 100 µM
GI50 (SF-268 CNS): 3.76 µM
TGI (SF-268 CNS): > 100 µM
